Measurements as given in the NIST ThermoML archive (doi:10.1021/acs.jced.6b00901).
± gives the expanded uncertainty stated by the source.

Test: refractive index (Na D-line) (dimensionless)
Conditions: 101.33 kPa, Liquid, Standard Abbe refractometry

Row | SMILES | refractive index (308.15 K) | refractive index (313.15 K) | refractive index (318.15 K) | refractive index (323.15 K) | refractive index (283.15 K) | refractive index (288.15 K) | refractive index (293.15 K) | refractive index (298.15 K) | refractive index (303.15 K)
1 | C1=CC2C3C=CC(C3)C2C1 (configuration not stated) [3a,4,7,7a-tetrahydro-4,7-methanoindene] | 1.5069 ± 0.0004 | 1.5045 ± 0.0004 | 1.5019 ± 0.0004 | 1.4991 ± 0.0004 |  |  |  |  | 
2 | CCOC(=O)c1ccccc1C(=O)OCC [diethyl phthalate] | 1.4962 ± 0.0004 | 1.4939 ± 0.0004 | 1.4917 ± 0.0004 | 1.4897 ± 0.0004 | 1.507 ± 0.0004 | 1.5048 ± 0.0004 | 1.5027 ± 0.0004 | 1.5005 ± 0.0004 | 1.4984 ± 0.0004
3 | C=Cc1ccccc1 [styrene] | 1.538 ± 0.0004 | 1.5352 ± 0.0004 | 1.5321 ± 0.0004 | 1.5291 ± 0.0004 | 1.5533 ± 0.0004 | 1.5505 ± 0.0004 | 1.5472 ± 0.0004 | 1.544 ± 0.0004 | 1.5409 ± 0.0004
